# Assay: Toxicokinetics of infigratinib in juvenile rat plasma after oral gavage
# Type: in vivo, Crl:WI(Han) rat
# Conditions: Crl:WI(Han), rat, plasma, po
# [1] = female, 0.1 mg/kg/day, Female rats, 0.1 mg/kg/day oral, PND 7
# [2] = female, 0.1 mg/kg/day, Female rats, 0.1 mg/kg/day oral, PND 12
# [3] = female, 0.1 mg/kg/day, Female rats, 0.1 mg/kg/day oral, PND 23
# [4] = female, 0.1 mg/kg/day, Female rats, 0.1 mg/kg/day oral, PND 35
# [5] = female, 0.3 mg/kg/day, Female rats, 0.3 mg/kg/day oral, PND 7
# [6] = female, 0.3 mg/kg/day, Female rats, 0.3 mg/kg/day oral, PND 12
# [7] = female, 0.3 mg/kg/day, Female rats, 0.3 mg/kg/day oral, PND 23
# [8] = female, 0.3 mg/kg/day, Female rats, 0.3 mg/kg/day oral, PND 35
# [9] = female, 1 mg/kg/day, Female rats, 1.0 mg/kg/day oral, PND 7
# [10] = female, 1 mg/kg/day, Female rats, 1.0 mg/kg/day oral, PND 12
# [11] = female, 1 mg/kg/day, Female rats, 1.0 mg/kg/day oral, PND 23
# [12] = female, 1 mg/kg/day, Female rats, 1.0 mg/kg/day oral, PND 35
# [13] = male, 0.1 mg/kg/day, Male rats, 0.1 mg/kg/day oral, PND 7
# [14] = male, 0.1 mg/kg/day, Male rats, 0.1 mg/kg/day oral, PND 12
# [15] = male, 0.1 mg/kg/day, Male rats, 0.1 mg/kg/day oral, PND 23
# [16] = male, 0.1 mg/kg/day, Male rats, 0.1 mg/kg/day oral, PND 35
# [17] = male, 0.3 mg/kg/day, Male rats, 0.3 mg/kg/day oral, PND 7
# [18] = male, 0.3 mg/kg/day, Male rats, 0.3 mg/kg/day oral, PND 12
# [19] = male, 0.3 mg/kg/day, Male rats, 0.3 mg/kg/day oral, PND 23
# [20] = male, 0.3 mg/kg/day, Male rats, 0.3 mg/kg/day oral, PND 35
# [21] = male, 1 mg/kg/day, Male rats, 1.0 mg/kg/day oral, PND 7
# [22] = male, 1 mg/kg/day, Male rats, 1.0 mg/kg/day oral, PND 12
# [23] = male, 1 mg/kg/day, Male rats, 1.0 mg/kg/day oral, PND 23
# [24] = male, 1 mg/kg/day, Male rats, 1.0 mg/kg/day oral, PND 35
compound,measurement,setting,value
"CCN1CCN(c2ccc(Nc3cc(N(C)C(=O)Nc4c(Cl)c(OC)cc(OC)c4Cl)ncn3)cc2)CC1 [infigratinib, 3-(2,6-Dichloro-3,5-dimethoxy-phenyl)-1-{6-[4-(4-ethyl-piperazin-1-yl)-phenylamino]-pyrimidin-4-yl}-1-methyl-urea]",AUC(0-t),[1],43 ng·h/mL
same,AUC(0-t),[2],40.5 ng·h/mL
same,AUC(0-t),[3],4.66 ng·h/mL
same,AUC(0-t),[4],1.4 ng·h/mL
same,Cmax,[1],4.18 ng/mL
same,Cmax,[2],3.4 ng/mL
same,Cmax,[3],0.78 ng/mL
same,Cmax,[4],0.3 ng/mL
same,half-life,"female, 0.1 mg/kg/day, T1/2, Female rats, 0.1 mg/kg/day oral, PND 7",4.7 h
same,half-life,"female, 0.1 mg/kg/day, T1/2, Female rats, 0.1 mg/kg/day oral, PND 12",5.66 h
same,Tmax,[1],3 h
same,Tmax,[2],3 h
same,Tmax,[3],3 h
same,Tmax,[4],1 h
same,AUC(0-t),[5],183 ng·h/mL
same,AUC(0-t),[6],137 ng·h/mL
same,AUC(0-t),[7],18.8 ng·h/mL
same,AUC(0-t),[8],4.54 ng·h/mL
same,Cmax,[5],19.4 ng/mL
same,Cmax,[6],14.9 ng/mL
same,Cmax,[7],2.25 ng/mL
same,Cmax,[8],0.66 ng/mL
same,half-life,"female, 0.3 mg/kg/day, T1/2, Female rats, 0.3 mg/kg/day oral, PND 7",4.26 h
same,half-life,"female, 0.3 mg/kg/day, T1/2, Female rats, 0.3 mg/kg/day oral, PND 12",3.82 h
same,half-life,"female, 0.3 mg/kg/day, T1/2, Female rats, 0.3 mg/kg/day oral, PND 23",4.53 h
same,Tmax,[5],3 h
same,Tmax,[6],3 h
same,Tmax,[7],3 h
same,Tmax,[8],3 h
same,AUC(0-t),[9],516 ng·h/mL
same,AUC(0-t),[10],593 ng·h/mL
same,AUC(0-t),[11],73 ng·h/mL
same,Cmax,[9],53.2 ng/mL
same,Cmax,[10],56.6 ng/mL
same,Cmax,[11],10.4 ng/mL
same,Cmax,[12],4.04 ng/mL
same,half-life,"female, 1 mg/kg/day, T1/2, Female rats, 1.0 mg/kg/day oral, PND 7",5.23 h
same,half-life,"female, 1 mg/kg/day, T1/2, Female rats, 1.0 mg/kg/day oral, PND 12",3.97 h
same,half-life,"female, 1 mg/kg/day, T1/2, Female rats, 1.0 mg/kg/day oral, PND 23",3.25 h
same,half-life,"female, 1 mg/kg/day, T1/2, Female rats, 1.0 mg/kg/day oral, PND 35",2.51 h
same,Tmax,[9],3 h
same,Tmax,[10],1 h
same,Tmax,[11],1 h
same,Tmax,[12],1 h
same,AUC(0-t),[13],31.9 ng·h/mL
same,AUC(0-t),[14],39.4 ng·h/mL
same,AUC(0-t),[15],3.81 ng·h/mL
same,AUC(0-t),[16],1.95 ng·h/mL
same,Cmax,[13],3.21 ng/mL
same,Cmax,[14],3.32 ng/mL
same,Cmax,[15],0.577 ng/mL
same,Cmax,[16],0.307 ng/mL
same,half-life,"male, 0.1 mg/kg/day, T1/2, Male rats, 0.1 mg/kg/day oral, PND 7",5.1 h
same,half-life,"male, 0.1 mg/kg/day, T1/2, Male rats, 0.1 mg/kg/day oral, PND 12",6.34 h
same,half-life,"male, 0.1 mg/kg/day, T1/2, Male rats, 0.1 mg/kg/day oral, PND 35",2.2 h
same,Tmax,[13],3 h
same,Tmax,[14],3 h
same,Tmax,[15],3 h
same,Tmax,[16],1 h
same,AUC(0-t),[17],114 ng·h/mL
same,AUC(0-t),[18],149 ng·h/mL
same,AUC(0-t),[19],21.5 ng·h/mL
same,AUC(0-t),[20],6 ng·h/mL
same,Cmax,[17],11.6 ng/mL
same,Cmax,[18],14.1 ng/mL
same,Cmax,[19],2.13 ng/mL
same,Cmax,[20],0.924 ng/mL
same,half-life,"male, 0.3 mg/kg/day, T1/2, Male rats, 0.3 mg/kg/day oral, PND 7",5.58 h
same,half-life,"male, 0.3 mg/kg/day, T1/2, Male rats, 0.3 mg/kg/day oral, PND 12",3.75 h
same,half-life,"male, 0.3 mg/kg/day, T1/2, Male rats, 0.3 mg/kg/day oral, PND 23",4.37 h
same,Tmax,[17],3 h
same,Tmax,[18],3 h
same,Tmax,[19],3 h
same,Tmax,[20],3 h
same,AUC(0-t),[21],375 ng·h/mL
same,AUC(0-t),[22],596 ng·h/mL
same,AUC(0-t),[23],87.2 ng·h/mL
same,AUC(0-t),[24],24.3 ng·h/mL
same,Cmax,[21],37.3 ng/mL
same,Cmax,[22],68.8 ng/mL
same,Cmax,[23],11.2 ng/mL
same,Cmax,[24],2.98 ng/mL
same,half-life,"male, 1 mg/kg/day, T1/2, Male rats, 1.0 mg/kg/day oral, PND 12",3.33 h
same,half-life,"male, 1 mg/kg/day, T1/2, Male rats, 1.0 mg/kg/day oral, PND 23",3.64 h
same,Tmax,[21],7 h
same,Tmax,[22],3 h
same,Tmax,[23],3 h
same,Tmax,[24],3 h

# Source: PMC10784415 (Developmental dynamics : an official publication of the …, 2023)
